Data on 11 compounds can be found in patent US10174202B2, “Dyes with phosphinic acid, phosphinate, phosphonate and phosphonamidate substituents as auxochromic groups and methods for preparing the same” (Max-Planck-Gesellschaft zur Foerderung der Wissenschaften …, priority 2017, dated 2019).

Data set [1] can be described thus: Fluorescence lifetime. It counts as physicochemical.
Data set [2] can be described thus: Emission spectra and fluorescence quantum yield. It counts as physicochemical. On the procedure:
(§1) Absorption spectra were recorded with a Varian Cary 4000 UV-Vis double-beam spectrophotometer (Agilent Technologies, USA). For the determination of the absorption spectra, quartz cells with a 1 cm path length were used. Emission spectra and fluorescence quantum yield were obtained on a Quantaurus-QY Absolute PL quantum yield spectrometer C11347 (Hamamatsu Photonics, Japan) or on a Varian Cary Eclipse fluorescence spectrometer (Agilent Technologies, USA).

Data set [3] is described as follows: Absorption spectroscopy (UV/Vis). It counts as physicochemical. On the procedure:
as §1

Data set [4] can be described thus: Stability of the dyes.

Several values for one entry are separate records, joined by “and”; a condition that tells them apart may be missing. Equal values may be shown once. Where a name gives a salt, the structure may show the parent alone. Marks after values point to notes of the source that are not given here.

As for `COP(=O)(OC)c1c(-c2nc3ccccc3s2)c(=O)oc2cc(N3CC(O)C3)ccc12` [Compound 2, Dimethyl [3-(benzo[d]thiazol-2-yl)-7-(3-hydroxyazetidin-1-yl)-2-oxo-2H-chromen-4-yl]phosphonate], the fluorescence lifetime in data set [1] (in acetonitrile) is listed as 1.99^a ns. Besides, in data set [2] (in acetonitrile), the Emission max. is recorded as 651 nm; the “QY (fluorescence quantum yield, Φfl)” value was 0.16; the Stokes shift is reported as 227^a nm. Moreover, in data set [3] (in acetonitrile), the Absorption max. is recorded as 424 nm and the “ε at absorption max.” value is 19000 M⁻¹ cm⁻¹.

Regarding `CCN(CC)c1ccc2c(P(=O)(OC(C)(C)C)OC(C)(C)C)c(-c3nc4ccccc4s3)c(=O)oc2c1` [Compound 3, Di-tert-butyl [3-(benzo[d]thiazol-2-yl)-7-(diethylamino)-2-oxo-2H-chromen-4-yl]phosphonate], the fluorescence lifetime in data set [1] (in acetonitrile) is given as 2.49^a ns. Moreover, in data set [2] (in acetonitrile), the Emission max. worked out at 658 nm; the “QY (fluorescence quantum yield, Φfl)” value amounted to 0.29; the Stokes shift is recorded as 224^a nm. Further, in data set [3] (in acetonitrile), the Absorption max. was 434 nm and the “ε at absorption max.” value came to 39000 M⁻¹ cm⁻¹.

In turn, `CCN(CC)c1ccc2c(P(=O)(O)O)c(-c3nc4ccccc4s3)c(=O)oc2c1` [Compound 4, [3-(Benzo[d]thiazol-2-yl)-7-(diethylamino)-2-oxo-2H-chromen-4-yl]phosphonic acid] yielded a fluorescence lifetime in data set [1] (in acetonitrile) of 2.91 ns. Moreover, the fluorescence lifetime in data set [1] (in methanol + 1% v/v trifluoroacetic acid) was 1.85 ns and 0.93 ns. Also, in data set [2] (in acetonitrile), the Emission max. worked out at 613 nm and the “QY (fluorescence quantum yield, Φfl)” value is 0.04. For the same compound, in data set [2] (in aq. PBS, pH 7.4), the Emission max. came out at 613 nm; the “QY (fluorescence quantum yield, Φfl)” value came out at 0.04; the Stokes shift is reported as 194^b nm. Further, in data set [3] (in aq. PBS, pH 7.4), the Absorption max. was 419 nm and the “ε at absorption max.” value was 22000 M⁻¹ cm⁻¹.

The compound `CN(C)c1ccc2c(P(=O)(Oc3ccccc3C(=O)[O-])N(C)C)c3ccc(=[N+](C)C)cc-3oc2c1` (centres unmarked) [Compound 9, 2-[[3,6-Bis(dimethylamino)-9H-xanthenylium-9yl](dimethylamino)phosphoryloxy]-benzoate] came in with a fluorescence lifetime in data set [1] (in aq. PBS, pH 7.4) of 1.88 ns. In addition, the Stability result in data set [4] was “moderate”. In data set [2] (in aq. PBS, pH 7.4), the Emission max. came to 638 nm; the “QY (fluorescence quantum yield, Φfl)” value is listed as 0.09; the Stokes shift was determined as 35 nm. In data set [2] (in methanol), the Emission max. was 622 nm; the “QY (fluorescence quantum yield, Φfl)” value is 0.36; the Stokes shift turned out to be 33 nm. In addition, in data set [3] (in aq. PBS, pH 7.4), the Absorption max. is 603 nm and the “ε at absorption max.” value turned out to be 69000 M⁻¹ cm⁻¹. In data set [3] (in methanol), the Absorption max. came to 589 nm and the “ε at absorption max.” value was determined as 49000 M⁻¹ cm⁻¹.

In the case of `CCOP(=O)(c1c2ccc(=[N+](C)C)cc-2oc2cc(N(C)C)ccc12)N(C)CCC(=O)O.O=C([O-])C(F)(F)F` (centres unmarked) [Compound 10], the stability of solutions entry in data set [4] (protic solvents (MeOH, H2O), particularly in the presence of acids, forms compound 11) is listed as “spontaneously decompose”. Also, in data set [2] (in acetonitrile), the Emission max. was 652 nm; the “QY (fluorescence quantum yield, Φfl)” value is recorded as 0.46; the Stokes shift was determined as 37 nm. For the same compound, in data set [2] (in aq. PBS, pH 7.4), the Emission max. is 670 nm; the “QY (fluorescence quantum yield, Φfl)” value amounted to 0.15; the Stokes shift is on record as 45 nm. Further, in data set [3] (in acetonitrile), the Absorption max. came to 615 nm and the “ε at absorption max.” value is 22224 M⁻¹ cm⁻¹. In addition, in data set [3] (in aq. PBS, pH 7.4), the Absorption max. is 625 nm and the “ε at absorption max.” value came out at 13816 M⁻¹ cm⁻¹.

For the compound `CC[N+](CC)=c1ccc2c(P(=O)(OC)OC)c3c(oc-2c1)-c1ccc(N(C)C)cc1CC3.O=C([O-])C(F)(F)F` [Compound 20, 10-(Diethylamino)-7-(dimethoxyphosphoryl)-3-(dimethylamino)-6,7-dihydro-5H-benzo[c]xanthenylium trifluoroacetate], in data set [1] (in acetonitrile), the fluorescence lifetime turned out to be 1.50 ns. Further, the Stokes shift was 56 nm in data set [2] (in acetonitrile) and 61 nm in data set [2] (in aq. PBS, pH 7.4). Moreover, the Emission max. in data set [2] (in acetonitrile, trifluoroacetate) was 737 nm and 754 nm; in data set [2] (in aq. PBS, pH 7.4), 754 nm. The “QY (fluorescence quantum yield, Φfl)” value in data set [2] (in aq. PBS, pH 7.4) stood at 0.02. Further, the Absorption max. worked out at 681 nm in data set [3] (in acetonitrile) and 693 nm in data set [3] (in aq. PBS, pH 7.4). In addition, the “ε at absorption max.” value in data set [3] (in acetonitrile) came to 40000 M⁻¹ cm⁻¹; in data set [3] (in aq. PBS, pH 7.4), 29000 M⁻¹ cm⁻¹.

As to `COP(=O)([c+]1c2ccc(N(C)C)cc2sc2cc(N(C)C)ccc21)N(C(C)C)C(C)C.O=C([O-])C(F)(F)F` (centres unmarked) [Compound 21, 9-[(Diisopropylamino)(methoxy)phosphoryl]-3,6-bis(dimethylamino)-9H-thioxanthen-9-ylium trifluoroacetate], the fluorescence lifetime in data set [1] (in acetonitrile) is reported as 0.77 ns. Besides, the Stability entry in data set [4] is given as “moderate”. Moreover, in data set [2] (in acetonitrile), the Emission max. came to 728 nm; the “QY (fluorescence quantum yield, Φfl)” value stood at 0.10; the Stokes shift is listed as 74^a nm. Also, in data set [3] (in acetonitrile), the Absorption max. amounted to 654 nm and the “ε at absorption max.” value amounted to 64000 M⁻¹ cm⁻¹.

For `CC(C)OP(=O)(OC(C)C)C1=C2C=CC(=[N+](C)C)C=C2C(C)(C)c2cc(N(C)C)ccc21` [Compound 24, 9-(Diisopropoxyphosphoryl)-3,6-bis(dimethylamino)-10,10-dimethyl-9,10-dihydro-anthracenylium trifluoromethanesulfonate], the Stability result in data set [4] is reported as “moderate”.

Take `C=CCOP(=O)(C1=C2C=CC(=[N+](C)C)C=C2C(C)(C)c2cc(N(C)C)ccc21)N(C(C)C)C(C)C` (centres unmarked) [Compound 25, 9-[(Allyloxy)(diisopropylamino)phosphoryl]-3,6-bis(dimethylamino)-10,10-dimethyl-9,10-dihydroanthracenylium trifluoromethanesulfonate]: the Stability entry in data set [4] is “poor”.

For the compound `C=CCOP(=O)(C1=c2cc3c(cc2C(C)(C)c2cc4c(cc21)CCCN4CCOC)=[N+](CCOC)CCC3)N(C(C)C)C(C)C` (centres unmarked) [Compound 26, 6-[(Allyloxy)(diisopropylamino)phosphoryl]-1,11-bis(2-methoxyethyl)-13,13-dimethyl-1,2,3,4,6,8,9,10,11,13-decahydrobenzo[1,2-g:5,4-g′]diquinolin-6-ylium trifluoroacetate], the Stability result in data set [4] is given as “poor”. In data set [2] (in acetonitrile), the Emission max. came to 812 nm; the “QY (fluorescence quantum yield, Φfl)” value stood at 0.08; the Stokes shift came out at 88 nm. Further, in data set [2] (in aq. PBS, pH 7.4), the Emission max. stood at 860 nm; the “QY (fluorescence quantum yield, Φfl)” value is on record as 0.05; the Stokes shift is listed as 126 nm. Further, in data set [3] (in acetonitrile), the Absorption max. was determined as 724 nm and the “ε at absorption max.” value was 46700 M⁻¹ cm⁻¹. Besides, in data set [3] (in aq. PBS, pH 7.4), the Absorption max. is given as 734 nm and the “ε at absorption max.” value was found to be 34700 M⁻¹ cm⁻¹.

Consider `COP(=O)([C+]1c2ccc(N(C)C)cc2-c2cccc3c(N(C)C)ccc1c23)N(C(C)C)C(C)C.O=C([O-])C(F)(F)F` (centres unmarked) [Compound 28, 7-[(Diisopropylamino)(methoxy)phosphoryl]-4,10-bis(dimethylamino)-7H-benzo[de]anthracen-7-ylium trifluoroacetate], for which, in data set [4], the Stability entry is on record as “poor”. In data set [2] (in aq. PBS, pH 7.4), the Emission max. turned out to be 782 nm; the “QY (fluorescence quantum yield, Φfl)” value was 0.04; the Stokes shift is 138^b nm. Further, in data set [3] (in aq. PBS, pH 7.4), the Absorption max. amounted to 644 nm and the “ε at absorption max.” value was 7600 M⁻¹ cm⁻¹.
